Measured values published in article PMC7221793, “Metabolism and Pharmacokinetics of SP-8356, a Novel (1S)-(−)-Verbenone Derivative, in Rats and Dogs and Its Implications in Humans” (Molecules, 2020).

What was measured:
[1] = In vivo metabolite identification, pooled rat plasma (Q-TOF LC-MS/MS); conditions: i.v. SP-8356 20 mg/kg; for AUClast (%): % versus total AUClast of parent and all detected metabolites; for AUClast (AR∙h) × 10^2: AR = peak area ratio versus internal standard; for Tmax: male, SD, iv, time of highest AR
Experimental: (§1) Plasma samples from the i.v. administrations described in Section 4.2 and Section 4.3 were used in this study. Plasma samples pooled at each time point were subjected to sample preparation as described in Section 4.2. The prepared samples were analyzed by Agilent 6530 Q-TOF LC-MS/MS system equipped with dual AJS ESI ion source and Agilent 1200 series HPLC system as described below.
(§2) Chromatographic separation was achieved on an Agilent Eclipse C18 column (2.1 mm × 100 mm, 3.5 µm) by a gradient elution with a mobile phase consisting of 0.1 vol.% formic acid in water (A) and 0.1 vol.% formic acid in acetonitrile (B) at 50 °C: starting with 5 vol.% B for 2 min, ramping to 95 vol.% B over 1 min, maintaining for 3 min. The mobile phase flow rate was kept at 0.45 mL/min throughout the run. The sample injection volume was 5 µL. Ion source parameters were set as follows: capillary voltage, 3500 V; drying gas, 12 L/min and 300 °C; nebulizer gas, 30 psi; sheath gas, 12 L/min and 300 °C. Mass spectra were acquired in negative ion auto MS/MS mode (F, 135 V; CE, 25 eV) with full scan range of m/z (100–1000) and mass scan rate of 8 spectra/s. Metabolites were identified using Agilent MassHunter Metabolite ID software (version B.04.00) (Santa Clara, CA, USA). Chromatograms and mass spectra of the parent and identified metabolites were extracted using Agilent MassHunter Qualitative Analysis software (version B.05.00) (Santa Clara, CA, USA).

[2] = In vivo metabolite identification, pooled dog plasma (Q-TOF LC-MS/MS); conditions: i.v. SP-8356 50 mg/kg; for AUClast (%): % versus total AUClast of parent and all detected metabolites; for AUClast (AR∙h) × 10^2: AR = peak area ratio versus internal standard; for Tmax: male, Beagle, iv, time of highest AR
Experimental: as §1, §2

[3] = In vivo metabolite identification, pooled rat urine; conditions: rat pooled urine 0–24 h, single i.v. dose of SP-8356
Experimental: Rat urine samples were collected from the animal studies approved by the IACUC of Korea University (Approval No.: KUIACUC-2017-124; Approval date: Jul. 29, 2017). SP-8356 dissolved in DMA/Cremophor EL/saline (5/10/85 vol.%) was dosed i.v. at 10 mg/kg (n = 5/dose group) to male SD rats (8 weeks old; (255–275) g; Koatech Inc., Gyeonggi, Republic of Korea) housed individually in metabolic cages. Urine samples were collected for ((0–4), (4–8) and (8–24)) h. Pooled urine samples were mixed with equal volume of acetonitrile containing HSDH (1 μg/mL) as IS, followed by filtration with a syringeless filter device (Mini-UniPrep™, PTFE filter media with polypropylene housing, 0.45 µm). The filtrate was analyzed by Agilent 6530 Q-TOF LC-MS/MS system equipped with dual AJS ESI ion source and Agilent 1200 series HPLC system, as follows.
Chromatographic separation was achieved on an Agilent Eclipse C18 column (2.1 mm × 100 mm, 3.5 µm) by a gradient elution with a mobile phase consisting of 0.1 vol.% formic acid in water (A) and 0.1 vol.% formic acid in acetonitrile (B) at 50 °C: starting with 5 vol.% B for 2 min, ramping to 95 vol.% B over 1 min, maintaining for 3 min. The mobile phase flow rate was kept at 0.45 mL/min throughout the run. The sample injection volume was 5 µL. […]

SMILES	AUClast (%) [1]	AUClast (AR∙h) × 10^2 [1]	Tmax [1]	AUClast (%) [2]	AUClast (AR∙h) × 10^2 [2]	Tmax [2]	metabolites detected in urine [3]
CC1(C)[C@@H]2C[C@H]1C(/C=C/c1cc(O)c(O)c(O)c1)=CC2=O [M3]	0.40%	0.55 (AR∙h) × 10^2	1.02 min	0.07%	2.7 (AR∙h) × 10^2	4.98 min	
COc1cc(C=CC2=CC(=O)C3CC2C3(C)C)cc(OC2OC(C(=O)O)C(O)C(O)C2O)c1OC1OC(C(=O)O)C(O)C(O)C1O (stereo not shown) [M5]	0.84%	1.14 (AR∙h) × 10^2	15 min	3.05%	120.5 (AR∙h) × 10^2	60 min	detected
